Test results from US12208098B2, “4-carbonylamino-4-phenylpyrimidine compound or pharmaceutically acceptable salt thereof” (Gachon University Of Industry-Academic Cooperation …, priority 2018, dated 2025).

Target: T1, Glutamate Dehydrogenase (GDH) (Rattus norvegicus, UniProt P10860)
T1 construct: only the supernatant was collected and transferred to a new tube to obtain a cell lysate; endogenous in cells; host or cells: INS-1 cell line (lysate)
Assay: Enzyme activation experiment: GDH Activity Colorimetric Assay Kit on INS-1 cell lysate
Type: biochemical
Conditions: vehicle-treated group set to 1
Description: Enzyme Activation Experiment
A sufficient amount of cells was obtained by culturing the INS-1 cell line under general cell culture condition (37° C. 5% CO2). Immediately before use in the experiment, a culture dish of the INS-1 cells was placed on ice, the culture medium was removed, and then washed with cold phosphate-buffered saline (PBS) (WELGEME, LB 001-02) to obtain a cell pellet.
To the harvested cell pellet, an appropriate amount of ice-cold Assay Buffer contained in the Glutamate Dehydrogenase (GDH) Activity Colorimetric Assay Kit (BioVision, K729-100) was added and then homogenized in the tube.
The tube was subjected to centrifuge in a condition of 13,000 g, 4° C. for 10 minutes, and then the pellet was discarded, and only the supernatant was collected and transferred to a new tube to obtain a cell lysate. Then, the protein concentration of the cell lysate was measured using Pierce™ BCA Protein Assay kit (Thermo, 23225).
By referring to the measured protein concentration, the cell lysate was prepared by diluting its concentration to 30 μg/50 μL or 100 μg/50 μL using the Assay Buffer.
The prepared cell lysate+vehicle or compound+Reaction mix was added according to the volume determined in the protocol of the Glutamate Dehydrogenase (GDH) Activity Colorimetric Assay Kit and reacted at 37° C., and the absorbance at 450 nm was measured using a kinetic method.
The GDH activity was calculated according to the calculation formula shown in the Assay Kit, and then the activity of the group treated with the vehicle was set to 1, and the folds of the remaining groups were calculated, and the results are shown in Table 2 below and FIG. 1.

T1 sequence (P10860 54-558): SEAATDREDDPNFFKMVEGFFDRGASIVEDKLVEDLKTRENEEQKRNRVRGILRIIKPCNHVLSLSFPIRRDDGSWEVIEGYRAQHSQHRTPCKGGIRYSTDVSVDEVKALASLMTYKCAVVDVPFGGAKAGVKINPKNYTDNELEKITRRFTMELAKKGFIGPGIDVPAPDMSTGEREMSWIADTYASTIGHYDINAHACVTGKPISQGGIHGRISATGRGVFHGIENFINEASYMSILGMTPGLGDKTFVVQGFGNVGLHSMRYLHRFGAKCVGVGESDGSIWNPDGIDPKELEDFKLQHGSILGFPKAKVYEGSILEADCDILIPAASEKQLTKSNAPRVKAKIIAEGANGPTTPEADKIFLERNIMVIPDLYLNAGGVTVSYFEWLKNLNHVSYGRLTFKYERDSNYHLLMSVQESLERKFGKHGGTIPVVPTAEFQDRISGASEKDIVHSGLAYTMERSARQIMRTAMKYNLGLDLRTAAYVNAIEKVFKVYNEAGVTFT

| Structure (SMILES) | Enzyme activity (fold) (compound concentration 0.2 μM) | Enzyme activity (fold) (compound concentration 2 μM) |
| --- | --- | --- |
| Nc1nccc(-c2ccc(NC(=O)c3ccc(Br)cc3)cc2)n1 [Compound 6, N-(4-(2-aminopyrimidin-4-yl)phenyl)-4-bromobenzamide] | 2.14 | 6.93 |
| COc1cc(C(=O)Nc2ccc(-c3ccnc(N)n3)cc2)ccc1Cl [Compound 7, N-(4-(2-aminopyrimidin-4-yl)phenyl)-4-chloro-3-methoxybenzamide] | 1.94 | 3.23 |
| Nc1nccc(-c2ccc(NC(=O)c3ccc(Cl)cc3)cc2)n1 [Compound 8, N-(4-(2-aminopyrimidin-4-yl)phenyl)-4-chlorobenzamide] | 1.34 | 11.05 |
| Nc1nccc(-c2ccc(NC(=O)c3cc(Cl)cc(Cl)c3)cc2)n1 [Compound 9, N-(4-(2-aminopyrimidin-4-yl)phenyl)-3,5-dichlorobenzamide] | 1.13 | 6.43 |
| Nc1nccc(-c2ccc(NC(=O)c3cccc(C(F)(F)F)c3F)cc2)n1 [Compound 10, N-(4-(2-aminopyrimidin-4-yl)phenyl)-2-fluoro-3-(trifluoromethyl)benzamide] | 2.08 | 10.83 |
